Literature values in patent US20110302824A1, “PROCESS FOR LIQUEFYING A CELLULOSIC MATERIAL” (SHELL OIL COMPANY, priority 2010, published 2011).

Settings: polarity of the (co-)solvent of the liquefaction medium; octanol-water

Structure (SMILES) | Solvent Log P
CCCCCCCCCCCC [w/C12, dodecane] | 6.1
CC1CCC(=O)O1 (centres unmarked) [w/gVL, gamma-valerolactone] | −0.6
